Test results from paper PMC6901909, “Synergy Pattern of Short Cationic Antimicrobial Peptides Against Multidrug-Resistant Pseudomonas aeruginosa” (Frontiers in Microbiology, 2019).
Values after ≈ are worked out from the molar mass of the structure shown. Peptide text beside a SMILES is read from it.

Legend:
Assay in all cases: microbe, parasite or virus in culture
Type in all cases: cell-based, Pseudomonas aeruginosa
[1] = system: MDR P. aeruginosa PA253; settings: MDR PA253, 18 h
Procedure: (§1) We selected six different P. aeruginosa isolates that were described as MDR and had been isolated from clinical and municipal waste water ([Schwartz et al., 2006]). The minimal inhibitory concentration (MIC) was determined in a microdilution assay using Mueller-Hinton (MH) broth following a previously published protocol ([Wiegand et al., 2008]). Briefly, a twofold serial dilution of the antibiotics and peptides were prepared and added to a bacteria solution, resulting in 2–5 10^5 CFU/ml. The microtiter plates (polypropylene, Corning) were incubated for 18 h at 37°C and MICs were taken visually.

[2] = system: P. aeruginosa PA01-wt; settings: -wt, 18 h
Procedure: as §1

[3] = system: MDR P. aeruginosa PA 919; settings: MDR PA 919, 18 h
Procedure: as §1

[4] = system: MDR P. aeruginosa PA 910; settings: MDR PA 910, 18 h
Procedure: as §1

| MIC against PA910 in μM (peptides, Table 4) [4] [µM] | Structure (SMILES) | MIC against MDR isolates of PA, PA253 [1] [µM] | MIC against PA01 wt [2] | MIC against MDR isolates of PA, PA919 [3] [µM] |
| --- | --- | --- | --- | --- |
| – | CC[C@H](C)[C@H](NC(=O)[C@H](CCCNC(=N)N)NC(=O)[C@H](C)NC(=O)[C@H](CCCNC(=N)N)NC(=O)[C@@H](N)CCCNC(=N)N)C(=O)N[C@H](C(=O)N[C@H](C(=O)N[C@H](C(=O)N[C@@H](CCCNC(=N)N)C(=O)N[C@H](C(=O)N[C@@H](C)C(=O)N[C@@H](CCCNC(=N)N)C(N)=O)C(C)C)[C@@H](C)CC)C(C)C)C(C)C [Peptide R2] (H-RRARIVVIRVAR-NH2) | 32 | 32 µM (≈ 46.8 µg/mL) | 16 |
| – | CC[C@H](C)[C@H](NC(=O)[C@H](CCCNC(=N)N)NC(=O)[C@H](CC(C)C)NC(=O)[C@H](CCCNC(=N)N)NC(=O)[C@@H](N)C(C)C)C(=O)N[C@@H](CCCNC(=N)N)C(=O)N[C@H](C(=O)N[C@@H](C)C(=O)N[C@H](C(=O)N[C@H](C(=O)N[C@@H](CCCNC(=N)N)C(=O)N[C@@H](C)C(N)=O)[C@@H](C)CC)C(C)C)C(C)C [Bac034] (H-VRLRIRVAVIRA-NH2) | 64 | 32 µM (≈ 45.5 µg/mL) | 32 |
| – | CC[C@H](C)[C@H](NC(=O)[C@H](CCCCN)NC(=O)[C@H](CCCNC(=N)N)NC(=O)[C@H](Cc1c[nH]c2ccccc12)NC(=O)[C@H](Cc1c[nH]c2ccccc12)NC(=O)[C@@H](N)CCCNC(=N)N)C(=O)N[C@@H](Cc1c[nH]c2ccccc12)C(=O)N[C@@H](CCCCN)C(=O)N[C@@H](Cc1c[nH]c2ccccc12)C(N)=O [LOP1] (H-RWWRKIWKW-NH2) | 8 | 2 µM (≈ 2.89 µg/mL) | 2 to 4 |
| 32 (≈ 49.2 µg/mL) | CC[C@H](C)[C@H](NC(=O)[C@H](CCCNC(=N)N)NC(=O)[C@H](Cc1c[nH]c2ccccc12)NC(=O)[C@H](CC(C)C)NC(=O)[C@@H](N)CCCNC(=N)N)C(=O)N[C@H](C(=O)N[C@H](C(=O)N[C@H](C(=O)N[C@@H](CCCNC(=N)N)C(=O)N[C@H](C(=O)N[C@@H](C)C(=O)N[C@@H](CCCNC(=N)N)C(N)=O)C(C)C)[C@@H](C)CC)C(C)C)C(C)C [Peptide W3] (H-RLWRIVVIRVAR-NH2) | – | – | – |
| – | CC[C@H](C)[C@H](N)C(=O)N[C@@H](CC(C)C)C(=O)N[C@@H](CCCCN)C(=O)N[C@@H](Cc1c[nH]c2ccccc12)C(=O)N[C@@H](CCCCN)C(=O)N[C@H](C(=O)N[C@@H](CCCCN)C(=O)N[C@@H](Cc1c[nH]c2ccccc12)C(=O)N[C@@H](Cc1c[nH]c2ccccc12)C(=O)N[C@@H](CCCCN)C(=O)N[C@@H](Cc1c[nH]c2ccccc12)C(=O)N[C@@H](Cc1ccccc1)C(=O)N[C@@H](CCCNC(=N)N)C(N)=O)[C@@H](C)O [Indopt 11] (H-ILKWKTKWWKWFR-NH2) | 4 | 2 µM (≈ 3.81 µg/mL) | 16 |
| – | CC[C@H](C)[C@H](NC(=O)[C@H](CCCNC(=N)N)NC(=O)[C@H](Cc1c[nH]c2ccccc12)NC(=O)[C@H](CCCNC(=N)N)NC(=O)[C@@H](N)CCCNC(=N)N)C(=O)N[C@H](C(=O)N[C@H](C(=O)N[C@H](C(=O)N[C@@H](CCCNC(=N)N)C(=O)N[C@H](C(=O)N[C@@H](CCCNC(=N)N)C(=O)N[C@@H](CCCNC(=N)N)C(N)=O)C(C)C)[C@@H](C)CC)C(C)C)C(C)C [Sub 3] (H-RRWRIVVIRVRR-NH2) | 8 | 8 µM (≈ 13.3 µg/mL) | 16 |
| – | CC[C@H](C)[C@H](NC(=O)[C@H](CCCNC(=N)N)NC(=O)[C@H](C)NC(=O)CNC(=O)[C@@H](N)CCCNC(=N)N)C(=O)N[C@H](C(=O)N[C@H](C(=O)N[C@H](C(=O)N[C@@H](CCCNC(=N)N)C(=O)N[C@H](C(=O)N[C@@H](C)C(=O)N[C@@H](CCCNC(=N)N)C(N)=O)C(C)C)[C@@H](C)CC)C(C)C)C(C)C [Peptide G2] (H-RGARIVVIRVAR-NH2) | 32 | 32 µM (≈ 43.7 µg/mL) | 16 |
| – | CC[C@H](C)[C@H](N)C(=O)N[C@@H](CC(C)C)C(=O)N[C@@H](CCCCN)C(=O)N[C@@H](Cc1c[nH]c2ccccc12)C(=O)N[C@@H](CCCCN)C(=O)N[C@@H](CCCCN)C(=O)NCC(=O)N[C@@H](Cc1c[nH]c2ccccc12)C(=O)N[C@@H](Cc1c[nH]c2ccccc12)C(=O)N[C@@H](CCCCN)C(=O)N[C@@H](Cc1c[nH]c2ccccc12)C(=O)N[C@@H](Cc1ccccc1)C(=O)N[C@@H](CCCNC(=N)N)C(N)=O [Indopt 8] (H-ILKWKKGWWKWFR-NH2) | 8 | 4 µM (≈ 7.45 µg/mL) | 16 |
| 16 (≈ 23.9 µg/mL) | CC[C@H](C)[C@H](NC(=O)[C@H](CCCNC(=N)N)NC(=O)[C@H](Cc1c[nH]c2ccccc12)NC(=O)[C@H](CCCNC(=N)N)NC(=O)[C@@H](N)C(C)C)C(=O)N[C@@H](CCCNC(=N)N)C(=O)N[C@H](C(=O)N[C@@H](C)C(=O)N[C@H](C(=O)N[C@H](C(=O)N[C@@H](CCCNC(=N)N)C(=O)N[C@@H](C)C(N)=O)[C@@H](C)CC)C(C)C)C(C)C [S-W3] (H-VRWRIRVAVIRA-NH2) | – | – | – |
| – | CC[C@H](C)[C@H](N)C(=O)N[C@@H](CC(C)C)C(=O)N[C@@H](CCCCN)C(=O)N[C@@H](Cc1c[nH]c2ccccc12)C(=O)N[C@@H](CCCCN)C(=O)N[C@@H](CCCNC(=N)N)C(=O)N[C@@H](CCCCN)C(=O)N[C@@H](Cc1c[nH]c2ccccc12)C(=O)N[C@@H](Cc1c[nH]c2ccccc12)C(=O)N[C@@H](CCCCN)C(=O)N[C@@H](Cc1c[nH]c2ccccc12)C(=O)N[C@@H](CCCNC(=N)N)C(=O)N[C@@H](CCCNC(=N)N)C(N)=O [Indopt 9] (H-ILKWKRKWWKWRR-NH2) | 4 | 1 (1) μM | 16 |
